Data as given in PMC6152678, “In Vitro Comparative Study of the Inhibitory Effects of Mangiferin and Its Aglycone Norathyriol towards UDP-Glucuronosyl Transferase (UGT) Isoforms” (Molecules : A Journal of Synthetic Chemistry and Natural …, 2017).
Where “and” joins values, the source holds several entries; their conditions need not be identical. Equal values may be shown once. Read-outs that look alike come from different tables or passages of the source.

Legend:
[1] = molecular target: T1, UGT2B4 (Homo sapiens, UniProt P06133); test: Inhibition of recombinant UGT-catalyzed 4-MU glucuronidation; assay type: biochemical; settings: pH 7.4, probe 4-methylumbelliferone (4-MU), 1000 μM, 100 μM compound, 4-MU probe substrate, negative = activation
T1 construct: purchased BD Gentest Corp. (Woburn, MA, USA); host or cells: baculovirus-infected insect cells
T1 sequence (P06133 24-528): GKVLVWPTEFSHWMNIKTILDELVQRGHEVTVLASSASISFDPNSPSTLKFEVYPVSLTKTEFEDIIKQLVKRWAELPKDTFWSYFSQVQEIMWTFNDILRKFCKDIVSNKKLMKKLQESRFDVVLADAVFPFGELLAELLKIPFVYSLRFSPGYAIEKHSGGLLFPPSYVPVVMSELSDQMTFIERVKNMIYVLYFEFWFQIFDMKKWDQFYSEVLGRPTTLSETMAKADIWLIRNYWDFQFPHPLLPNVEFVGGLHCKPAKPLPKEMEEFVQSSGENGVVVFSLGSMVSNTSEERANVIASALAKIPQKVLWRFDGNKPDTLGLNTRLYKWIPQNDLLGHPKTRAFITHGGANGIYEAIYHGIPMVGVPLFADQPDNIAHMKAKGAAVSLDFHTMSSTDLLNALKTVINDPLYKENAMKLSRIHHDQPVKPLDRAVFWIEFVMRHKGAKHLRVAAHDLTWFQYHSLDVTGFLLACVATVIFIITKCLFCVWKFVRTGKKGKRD

[2] = rat, cited from earlier work
[3] = parameters: method as in PMID 26434292; settings: human, oral 0.9 g mangiferin, cited from earlier work

SMILES	inhibition at 120 min, 100 µM [1] [%]	maximum concentration in the plasma ([2]; oral MGF 70mg/kg)	maximum concentration in the plasma ([2]; oral MGF 120 mg/kg)	concentration in plasma reached ([3]; about 1 h)	time at which the plasma concentration was reached [3]
O=c1c2cc(O)c(O)cc2oc2cc(O)cc(O)c12 [NTR, 1,3,6,7-tetrahydroxyxanthone]	-5.5	–	–	–	–
O=c1c2cc(O)c(O)cc2oc2cc(O)c([C@@H]3O[C@H](CO)[C@@H](O)[C@H](O)[C@H]3O)c(O)c12 [MGF, 1,3,6,7-tetrahydroxyxanthone-C-2-β-D-glucoside]	-61.9	0.19 μg/mL and 0.45 μM	8.13 ± 1.96 μg/mL and 19.2 ± 4.64 μM	38.64 ± 6.75 ng/mL and 0.091 ± 0.016 μM	about 1 h
